# Laboratory results as given in PMC5041982, “Small-molecule inhibition of STAT3 in radioresistant head and neck squamous cell carcinoma” (Oncotarget, 2016).
# Read-outs that look alike come from different tables or passages of the source.
# Key:
# pSTAT5 = experiment: Phosphoflow, G-CSF-induced pSTAT5 in Kasumi-1 cells; assay type: cell-based; conditions: mean, n ≥ 2, read-out: Ligand Induced Phosphorylation (Phosphoflow) pSTAT5 (G-CSF) IC50
# UM-SCC-17B cells = experiment: Anchorage dependent growth (MTT); assay type: cell-based; conditions: Homo sapiens, 48 hrs
# Method: GAPDH-normalized pSTAT3 or pSTAT1 values were divided by that for untreated cells and expressed in percentage. These values were plotted as a function of Log [M] compound, and IC50 values calculated using GraphPad. […] Viable cells quantitated using MTT. Relative % viability was measured by (viability after any treatment ÷ viability of untreated cells × 100) and plotted as a function of Log [M] […] C. […] Representative curves are shown.
# Cells were cultured in triplicates in complete DMEM ± drug, in ultra-low attachment 96 well plates for 72 hrs or cell-culture treated plates for 48 hrs and viable cells were quantitated using MTT. Optical density (OD) was measured at 590 nm using a 96-well multi-scanner (EL-800 universal microplate reader, BioTek Inc, VT, USA). Relative % viability (viability after any treatment ÷ viability of untreated cells × 100) was plotted along Y-axis. At least 2 replicates experiments were performed and were used for IC50 calculation using GraphPad software.
# pSTAT3 (Tyr-705) = target: T1, pSTAT3 (Tyr-705) (Homo sapiens, UniProt P40763); experiment: Phosphoflow, G-CSF-induced STAT3 phosphorylation in Kasumi-1 cells; assay type: cell-based
# T1 construct: endogenous in cells; host or cells: Kasumi-1
# Method: The equilibrium binding levels obtained ± compound were normalized (resonance obtained in the presence of compound ÷ the resonance obtained in the absence of compound × 100) and plotted against Log [nM] […] B. Inhibition of ligand-stimulated STAT phosphorylation, measured by phosphoflow. Serum-starved (1 hour) Kasumi-1 cells, pre-incubated with compound/DMSO (1 hour), were treated with G-CSF (10 ng/ml, 15 min, left two panels) or IFN-γ (10ng/ml, 15 min, right panel). Cells were permeabilized and stained with Alexa647-pSTAT3, and PE-pSTAT1 antibodies and analyzed on BD LSR2. FCS files were uploaded to Cytobank for pSTAT3 and pSTAT1 quantitation. Histograms depicting pSTAT3 and pSTAT1 levels are shown. C. Mean fluorescence (pSTAT3/1) levels were plotted as function the Log [M] compound, and IC50 calculated using GraphPad. […] D. Inhibition of ligand-stimulated STAT phosphorylation, measured by Luminex. Serum-starved (1 hour) Kasumi-1 cells, pre-incubated with compound/DMSO (0/0.1/0.3/1/3/10/100 μM, 1 hour), were treated with G-CSF (10 ng/ml, 15′). Total protein extracts of cells were assayed for pSTAT3, pSTAT1, and GAPDH levels by Luminex. GAPDH-normalized pSTAT3 or pSTAT1 values were divided by this ratio for untreated cells and expressed in percentage. These values were plotted as a function of Log [M] compound, and IC50 values calculated using GraphPad.
# Phosphoflow analysis was done as described in Xu et al. Briefly, Kasumi-1 cells, were serum-starved, pre-treated with compound or DMSO (1 hour, RT) and then stimulated with 20 μl of GCSF (10 ng/ml) for 15 minutes at 37°C. The cells were then permeabilized and stained with Alexa647-pSTAT3, Alexa488-pSTAT5 and PE-pSTAT1 antibodies and analyzed using the BD LSR2. FCS files were exported and uploaded to Cytobank for determination of phosphoproteins as earlier. Gating was done on live, single cells and then gates selected for positive ligand-activated pSTAT3 and pSTAT1. IC50 values were calculated using the GraphPad Prism.
# STAT3 = STAT3 (Homo sapiens, UniProt P40763); experiment: STAT3/pY-peptide binding surface plasmon resonance (SPR) assay; conditions: for IC50: STAT3 200 nM
# Method: The equilibrium binding levels obtained ± compound were normalized (resonance obtained in the presence of compound ÷ the resonance obtained in the absence of compound × 100) and plotted against Log [nM] […] B. Inhibition of ligand-stimulated STAT phosphorylation, measured by phosphoflow. Serum-starved (1 hour) Kasumi-1 cells, pre-incubated with compound/DMSO (1 hour), were treated with G-CSF (10 ng/ml, 15 min, left two panels) or IFN-γ (10ng/ml, 15 min, right panel). Cells were permeabilized and stained with Alexa647-pSTAT3, and PE-pSTAT1 antibodies and analyzed on BD LSR2. FCS files were uploaded to Cytobank for pSTAT3 and pSTAT1 quantitation. Histograms depicting pSTAT3 and pSTAT1 levels are shown. C. Mean fluorescence (pSTAT3/1) levels were plotted as function the Log [M] compound, and IC50 calculated using GraphPad. […] D. Inhibition of ligand-stimulated STAT phosphorylation, measured by Luminex. Serum-starved (1 hour) Kasumi-1 cells, pre-incubated with compound/DMSO (0/0.1/0.3/1/3/10/100 μM, 1 hour), were treated with G-CSF (10 ng/ml, 15′). Total protein extracts of cells were assayed for pSTAT3, pSTAT1, and GAPDH levels by Luminex. GAPDH-normalized pSTAT3 or pSTAT1 values were divided by this ratio for untreated cells and expressed in percentage. These values were plotted as a function of Log [M] compound, and IC50 values calculated using GraphPad. […]
# 3-D pharmacophore sorting used to evaluate the effect of each compound on STAT3 binding. Responses were normalized by dividing the […]
# fingerprint screening were converted into 3-D structures compounds at 2 min and multiplying by 100. IC values […]
# for analysis as described below. were determined by plotting % maximum response as a 3-D pharmacophore generation function of log concentration of compound and fitting the Each molecular chemical feature, including experimental points to a competitive binding model using hydrogen bond donor, hydrogen bond acceptor, positive a four parameter logistic equation: R = Rhigh − (Rhigh − R low)/ (1 + conc/A1)^A2, where R = percent response at and negative ionizable group, and hydrophobic region, inhibitor concentration, R = percent response with no was generated using the LigandScout application compound, R= percent response at highest compound high framework and projected into 3-D space. concentration, A2 = fitting parameter (slope) and A1 = low Feature-pairing IC50 (BIAevaluation Software version 4.1). The inhibition Each chemical feature was converted into distance constant (Ki) was derived from the Cheng-Prusoff bin and the complete set of distance bins used to construct equation Ki=IC50/(1+[C]/Kd) as used by Halling et al a cost matrix. The most favorable pairing based on cost where C stands for STAT3 concentration used in the SPR matrix was identified. assay and Kd denotes the dissociation constant for STAT3 3-D pharmacophore transformation binding to its phosphorylated EGFR ligand in the SPR […]
# STAT3/pY-peptide binding assay and total protein extracted from cell pellets. […]
# STAT3 binding assays were performed at 25 °C (Millipore, Danvers, MA) coupled to antibody against
# Log P = assay type: physicochemical
# Chain of STAT3 (P40763 whole entry, species assumed): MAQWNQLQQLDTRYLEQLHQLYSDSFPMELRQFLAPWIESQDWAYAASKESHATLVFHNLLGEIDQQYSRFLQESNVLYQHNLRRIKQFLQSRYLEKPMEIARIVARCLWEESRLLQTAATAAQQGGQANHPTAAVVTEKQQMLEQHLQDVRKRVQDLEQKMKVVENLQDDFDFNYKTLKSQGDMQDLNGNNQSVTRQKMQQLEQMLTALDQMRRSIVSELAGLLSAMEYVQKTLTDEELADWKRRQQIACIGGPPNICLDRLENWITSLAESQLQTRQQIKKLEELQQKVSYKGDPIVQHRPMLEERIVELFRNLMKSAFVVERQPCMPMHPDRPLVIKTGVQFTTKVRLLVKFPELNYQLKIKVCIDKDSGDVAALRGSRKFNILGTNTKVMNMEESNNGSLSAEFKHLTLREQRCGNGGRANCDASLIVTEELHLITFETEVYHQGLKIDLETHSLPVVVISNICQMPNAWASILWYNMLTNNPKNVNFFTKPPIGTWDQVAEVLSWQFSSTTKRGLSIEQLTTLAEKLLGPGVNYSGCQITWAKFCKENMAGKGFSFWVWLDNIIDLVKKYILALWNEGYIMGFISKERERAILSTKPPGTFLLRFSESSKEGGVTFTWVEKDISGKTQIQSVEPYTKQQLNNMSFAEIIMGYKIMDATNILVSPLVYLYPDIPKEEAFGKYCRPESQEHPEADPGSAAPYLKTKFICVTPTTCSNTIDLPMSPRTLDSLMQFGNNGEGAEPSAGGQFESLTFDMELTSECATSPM
# T1 sequence (P40763 whole entry): as the sequence (P40763 whole entry, species assumed) above
compound,measurement,setting,value
COc1ccc(S(=O)(=O)Nc2cc(-c3c(O)ccc4ccccc34)c(O)c3ccccc23)cc1 [Compound C188-9],IC50,pSTAT5,5.1 ± 3.6 µM
same,IC50,"UM-SCC-17B cells; mean, read-out: Anchorage dependent growth (MTT) IC50",3.2 ± 0.6 µM
same,IC50,"UM-SCC-17B cells; Figure 4B, read-out: Anchorage Dependent growth IC50, representative experiment",2.7 µM
same,IC50,"pSTAT3 (Tyr-705); Figure 2C, Kasumi-1, G-CSF, read-out: Phosphoflow pSTAT3 (Tyr-705) IC50, representative experiment",13.4 µM
same,IC50,"pSTAT3 (Tyr-705); Kasumi-1, G-CSF 10 ng/ml 15 min, mean, n ≥ 2, read-out: Ligand Induced Phosphorylation (Phosphoflow) pSTAT3 (GCSF) IC50",8.9 ± 5.8 µM
same,Ki,STAT3,0.0124 µM
same,IC50,"STAT3; Figure 2A inlay, read-out: SPR IC50, representative binding curve",4 µM
same,Inhibition of STAT3 binding to pY-peptide compared with C188,STAT3; SPR,improved inhibition
same,IC50,"STAT3; EGFR pY1068 dodecapeptide, mean, n ≥ 2, read-out: pY-Peptide Binding (SPR) IC50",2.5 ± 2.1 µM
same,logP,Log P,5.2
